Series [1] deals with ovariectomized (OVX) female Sprague Dawley rats. The experiment in a line: Serum cholesterol in ovariectomized rats (post-menopausal model), 4 days of daily dosing. The format is in vivo, rat. The settings on record: for Cholest. % dec. OVX: oral, daily for 4 days. As to the method:
(§1) In the examples illustrating the methods, a post-menopausal model was used in which effects of different treatments upon circulating lipids were determined.
(§2) Seventy-five day old female Sprague Dawley rats (weight range of 200 to 225 g) were obtained from Charles River Laboratories (Portage, Mich.). The animals were either bilaterally ovariectomized (OVX) or exposed to a Sham surgical procedure at Charles River Laboratories, and then shipped after one week. Upon arrival, they were housed in metal hanging cages in groups of 3 or 4 per cage and had ad libitum access to food (calcium content approximately 0.5%) and water for one week. Room temperature was maintained at 22.2°±1.70° C. with a minimum relative humidity of 40%. The photoperiod in the room was 12 hours light and 12 hours dark.
Dosina Reaimen Tissue Collection. After a one week acclimation period (therefore, two weeks post-OVX) daily dosing with test compound was initiated. 17α-ethynyl estradiol or the test compound were given orally, unless otherwise stated, as a suspension in 1% carboxymethylcellulose or dissolved in 20% cyclodextrin. Animals were dosed daily for 4 days. Following the dosing regimen, animals were weighed and anesthetized with a ketamine: xylazine (2:1, V:V) mixture and a blood sample was collected by cardiac puncture. The animals were then sacrificed by asphyxiation with CO2, the uterus was removed through a midline incision, and a wet uterine weight was determined.
Cholesterol Analysis. Blood samples were allowed to clot at room temperature for 2 hours, and serum was obtained following centrifugation for 10 minutes at 3000 rpm. Serum cholesterol was determined using a Boehringer Mannheim Diagnostics high performance cholesterol assay. Briefly the cholesterol was oxidized to cholest-4-en-3-one and hydrogen peroxide. The hydrogen peroxide was then reacted with phenol and 4-aminophenazone in the presence of peroxidase to produce a p-quinone imine dye, which was read spectrophotemetrically at 500 nm. Cholesterol concentration was then calculated against a standard curve. The entire assay was automated using a Biomek Automated Workstation.

The next series concerns ovariectomized rats. The experiment in a line: Osteoporosis Test Procedure: femur density in ovariectomized rats, 35 days. It counts as in vivo, rat. The settings on record: oral, in 20% hydroxypropyl β-cyclodextrin, daily for 35 days. The procedure:
Following the General Preparation Procedure, infra, the rats are treated daily for 35 days (6 rats per treatment group) and sacrificed by decapitation on the 36th day. The 35 day time period is sufficient to allow maximal reduction in bone density, measured as described herein. At the time of sacrifice, the uteri are removed, dissected free of extraneous tissue, and the fluid contents are expelled before determination of wet weight in order to confirm estrogen deficiency associated with complete ovariectomy. […] The uteri are then placed in 10% neutral buffered formalin to allow for subsequent histological analysis. The right femurs are excised and scanned at the distal metaphysis 1 mm from the patellar groove with single photon absorptiometry. Results of the densitometer measurements represent a calculation of bone density as a function of the bone mineral content and bone width. In accordance with the above procedures, compounds of the present invention and ethynyl estradiol (EE2) in 20% hydroxypropyl β-cyclodextrin are orally administered to test animals.

Series [2] relates to ovariectomized (OVX) female Sprague Dawley rats. The experiment in a line: Wet uterine weight in ovariectomized rats, 4 days of daily dosing. Particulars: rat, in vivo, po, 0.1 mg/kg/day. The procedure:
as §1, §2
Dosina Reaimen Tissue Collection. After a one week acclimation period (therefore, two weeks post-OVX) daily dosing with test compound was initiated. 17α-ethynyl estradiol or the test compound were given orally, unless otherwise stated, as a suspension in 1% carboxymethylcellulose or dissolved in 20% cyclodextrin. Animals were dosed daily for 4 days. […] The animals were then sacrificed by asphyxiation with CO2, the uterus was removed through a midline incision, and a wet uterine weight was determined.

Series [3] relates to uteri of ovariectomized (OVX) female Sprague Dawley rats. The experiment in a line: Uterine Eosinophil Peroxidase (EPO) Assay. Particulars: rat, in vivo.

The text below walks through data of US6608090B1, “Benzothiophenes with novel basic side chains” (Eli Lilly and Company, priority 1995, dated 2003).

On to `CC1CCN(CCOc2ccc(C(=O)c3c(-c4ccc(O)cc4)sc4cc(O)ccc34)cc2)CC1`, for which the “Cholest. % dec. OVX” value in series [1] (0.1 mg/kg) came out at 43.2%; in series [1] (1 mg/kg), 71.0%; in series [1] (10 mg/kg), 51.6%.
The corresponding values for `CC1(C)CCCN(CCOc2ccc(C(=O)c3c(-c4ccc(O)cc4)sc4cc(O)ccc34)cc2)C1` are 25.1%, 58.6% and 50.9%.
The corresponding values for `CC1(C)CCN(CCOc2ccc(C(=O)c3c(-c4ccc(O)cc4)sc4cc(O)ccc34)cc2)CC1` are 14.5%, 25.9% and 65.8%.
The corresponding values for `C[C@@H]1C[C@H](C)CN(CCOc2ccc(C(=O)c3c(-c4ccc(O)cc4)sc4cc(O)ccc34)cc2)C1` are 13.8%, 66.8% and 85.5%.
`CC1CCCC(C)N1CCOc1ccc(C(=O)c2c(-c3ccc(O)cc3)sc3cc(O)ccc23)cc1` (stereo not shown): the “Cholest. % dec. OVX” value in series [1] (0.1 mg/kg) is reported as 41.5%; in series [1] (1 mg/kg), 62.3%; in series [1] (10 mg/kg), 76.9%.
As to `COC[C@@H]1CCCN1CCOc1ccc(C(=O)c2c(-c3ccc(O)cc3)sc3cc(O)ccc23)cc1`, the “Cholest. % dec. OVX” value in series [1] (0.1 mg/kg) amounted to 30.2%; in series [1] (1 mg/kg), 65.4%; in series [1] (10 mg/kg), 80.3%.
On to `O=C(c1ccc(OCCN2CCC[C@@H]2CO)cc1)c1c(-c2ccc(O)cc2)sc2cc(O)ccc12`, for which the “Cholest. % dec. OVX” value in series [1] (0.1 mg/kg) came to 42.0%; in series [1] (1 mg/kg), 40.6%; in series [1] (10 mg/kg), 71.9%.
For the compound `O=C(c1ccc(OCCN2CCC[C@H]2CO)cc1)c1c(-c2ccc(O)cc2)sc2cc(O)ccc12`, the entries for the “Cholest. % dec. OVX” value in series [1] (0.1 mg/kg), in series [1] (1 mg/kg) and in series [1] (10 mg/kg) were 46.7%, 73.7% and 74.5%, respectively.
The corresponding values for `CC1CC(C)CN(CCOc2ccc(C(=O)c3c(-c4ccc(O)cc4)sc4cc(O)ccc34)cc2)C1` (racemic) are 50.6%, 69.7% and 81.6%.
Turning to `C#C[C@]1(O)CC[C@H]2[C@@H]3CCc4cc(O)ccc4[C@H]3CC[C@@]21C` [EE2, 17α-ethynyl estradiol], the “effect on serum cholesterol (in words)” value in series [1] (orally administered at 0.1 mg/Kg/day) is “caused a decrease in serum cholesterol”. For the same compound, the “loss of femur density (bone loss) after ovariectomy, in words” value in the series with ovariectomized rats is “prevents this loss”. Besides, the “uterine weight compared with ovariectomized test animals (in words)” value in series [2] is listed as “substantially greater”. Also, the “eosinophil infiltration into the uterus (stromal layer), in words” value in series [3] is on record as “substantial, expected increase in esosinophils infiltration”.
